Values joined by “and” are separate entries in the source; they are usually repeats but may differ in a detail not shown here. Equal entries are not always repeated. Where two headings read alike, the source gives them in different places.
Test system: Chinese adult subjects with FLT3-mutant R/R AML
Assay: Phase II clinical study, safety

In the case of CC(C)n1c(Nc2cccnc2)nc2cnc(Nc3ccc(N4CCN(C)CC4)cc3)nc21 [Compound A], the “Adverse events leading to death” value is reported as 3 (23.1) n (%), the “Adverse events of > Grade 3” value is reported as 11 (84.6) n (%) and the Important adverse reactions is reported as 8 (61.5) n (%). The “Non-hematologic adverse events of > Grade 3” value (“Non-hematologic adverse events” for short) was 11 (84.6) n (%), the “elevated blood lactate dehydrogenase” value (150 mg BID group) was 1 subject and the “elevated aspartate amino transferase” value (150 mg BID group (1 subject)) was 7.1%. For the same molecule, the “adverse reactions classified as cardiac organ diseases (SOC)” value (150 mg BID group (2 subjects)) was 14.3%, the “adverse reactions classified as hepatobiliary system disease (SOC)” value (150 mg BID group (2 subjects)) was 14.3% and the elevated hemobilirubin (150 mg BID group (2 subjects)) was 14.3%. For the same molecule, the “incidence of hematological adverse reactions of grade ≥4” value (150 mg BID group (7 cases)) was 50%, the Adverse events (150 mg group (N = 14)) was 14 (100.0) n (%) and the “Adverse events leading to death” value (150 mg group (N = 14)) was 4 (28.6) n (%). The “Adverse events leading to dose reduction” value (150 mg group (N = 14)) was 3 (21.4) n (%), the “Adverse events leading to withdrawal from the trial” value (150 mg group (N = 14)) was 3 (21.4) n (%) and the “Adverse events of > Grade 3” value (150 mg group (N = 14)) was 13 (92.9) n (%). For the same molecule, the Adverse reactions (150 mg group (N = 14)) was 12 n (%) and 12 (85.7) n (%), the “Adverse reactions leading to death” value (150 mg group (N = 14)) was 1 (7.1) n (%) and the “Adverse reactions leading to dose reduction” value (150 mg group (N = 14)) was 3 (21.4) n (%). For the same molecule, the “Adverse reactions leading to withdrawal from the trial” value (150 mg group (N = 14)) was 0 (0) n (%), the “Adverse reactions of > Grade 3” value (150 mg group (N = 14)) was 9 (64.3) n (%) and the Important adverse events (150 mg group (N = 14)) was 11 (78.6) n (%). The Important adverse reactions (150 mg group (N = 14)) was 8 (57.1) n (%), the “Non-hematologic adverse events” value (150 mg group (N = 14)) was 10 (71.4) n (%) and the “Non-hematological adverse reactions of > Grade 3” value (150 mg group (N = 14)) was 4 (28.6) n (%). The Serious adverse events (150 mg group (N = 14)) was 11 (78.6) n (%), the Serious adverse reactions (150 mg group (N = 14)) was 5 (35.7) n (%) and the “adverse events of > Grade 4” value (150 mg group (N = 14)) was 8 (57.1) n (%). The “adverse reactions of > Grade 4” value (150 mg group (N = 14)) was 7 (50.0) n (%), the “adverse reactions classified as cardiac organ diseases (SOC)” value (200 mg BID group) was 0 subjects and the electrocardiogram high voltage (200 mg BID group) was 1 subject. The elevated hemobilirubin (200 mg BID group (1 subject)) was 25%, the “incidence of hematological adverse reactions of grade ≥4” value (200 mg BID group (2 cases)) was 50% and the Adverse events (200 mg group (N = 4)) was 4 (100.0) n (%). The “Adverse events leading to death” value (200 mg group (N = 4)) was 1 (25.0) n (%), the “Adverse events leading to dose reduction” value (200 mg group (N = 4)) was 2 (50.0) n (%) and the “Adverse events leading to withdrawal from the trial” value (200 mg group (N = 4)) was 1 (25.0) n (%). For the same molecule, the “Adverse events of > Grade 3” value (200 mg group (N = 4)) was 4 (100.0) n (%), the Adverse reactions (200 mg group (N = 4)) was 4 n (%) and 4 (100.0) n (%) and the “Adverse reactions leading to death” value (200 mg group (N = 4)) was 0 (0) n (%). The “Adverse reactions leading to dose reduction” value (200 mg group (N = 4)) was 2 (50.0) n (%), the “Adverse reactions leading to withdrawal from the trial” value (200 mg group (N = 4)) was 0 (0) n (%) and the “Adverse reactions of > Grade 3” value (200 mg group (N = 4)) was 3 (75.0) n (%). For the same molecule, the Important adverse events (200 mg group (N = 4)) was 4 (100.0) n (%), the Important adverse reactions (200 mg group (N = 4)) was 3 (75.0) n (%) and the “Non-hematologic adverse events” value (200 mg group (N = 4)) was 4 (100.0) n (%). The “Non-hematological adverse reactions of > Grade 3” value (200 mg group (N = 4)) was 3 (75.0) n (%), the Serious adverse events (200 mg group (N = 4)) was 3 (75.0) n (%) and the Serious adverse reactions (200 mg group (N = 4)) was 2 (50.0) n (%). For the same molecule, the “adverse events of > Grade 4” value (200 mg group (N = 4)) was 2 (50.0) n (%), the “adverse reactions of > Grade 4” value (200 mg group (N = 4)) was 2 (50.0) n (%) and the electrocardiogram high voltage (300 mg QD group) was 1 subject. For the same molecule, the “adverse reactions classified as cardiac organ diseases (SOC)” value (300 mg QD group (1 subject)) was 7.7%, the “adverse reactions classified as hepatobiliary system disease (SOC)” value (300 mg QD group (2 subjects)) was 15.4% and the elevated gamma-glutamyltransferase (300 mg QD group (2 subjects)) was 15.4%. For the same molecule, the “elevated blood alkaline phosphatase” value (300 mg QD group (3 subjects)) was 23.1%, the elevated hemobilirubin (300 mg QD group (3 subjects)) was 23.1% and the “incidence of hematological adverse reactions of grade ≥4” value (300 mg QD group (9 cases)) was 69.2%. The Adverse events (300 mg group (N = 14)) was 13 (100.0) n (%), the “Adverse events leading to dose reduction” value (300 mg group (N = 14)) was 2 (15.4) n (%) and the “Adverse events leading to withdrawal from the trial” value (300 mg group (N = 14)) was 0 (0) n (%). The Adverse reactions (300 mg group (N = 14)) was 12 n (%) and 12 (92.3) n (%), the “Adverse reactions leading to death” value (300 mg group (N = 14)) was 1 (7.7) n (%) and the “Adverse reactions leading to dose reduction” value (300 mg group (N = 14)) was 1 (7.7) n (%). The “Adverse reactions leading to withdrawal from the trial” value (300 mg group (N = 14)) was 0 (0) n (%), the “Adverse reactions of > Grade 3” value (300 mg group (N = 14)) was 9 (69.2) n (%) and the Important adverse events (300 mg group (N = 14)) was 11 (84.6) n (%). The “Non-hematological adverse reactions of > Grade 3” value (300 mg group (N = 14)) was 7 (53.8) n (%), the Serious adverse events (300 mg group (N = 14)) was 10 (76.9) n (%) and the Serious adverse reactions (300 mg group (N = 14)) was 6 (46.2) n (%). The “adverse events of > Grade 4” value (300 mg group (N = 14)) was 9 (69.2) n (%), the “adverse reactions of > Grade 4” value (300 mg group (N = 14)) was 9 (69.2) n (%) and the “serious hematological adverse reaction: anemia” value (31 subjects (1 case)) was 3.2%. The “serious hematological adverse reaction: bone marrow failure” value (31 subjects (1 case)) was 3.2%, the “serious hematological adverse reaction: hemolyticanemia” value (31 subjects (1 case)) was 3.2% and the “serious hematological adverse reaction: leukocytopenia” value (31 subjects (1 case)) was 3.2%. The “serious hematological adverse reaction: neutropenia” value (31 subjects (2 cases)) was 6.5%.

Reference: patent US20220387435A1, “USE OF MULTI-TARGET PROTEIN KINASE INHIBITOR” (CSPC Zhongqi Pharmaceutical Technology (Shijiazhuang) Co., …, priority 2019, published 2022)
